Experimental data as given in PubChem BioAssay AID1918954 (Molecular Pharmacology Branch, DTP, NCI, 2023).

System: MDA-MB-468 complex spheroids with HUVEC/MSC, viability
Experiment: Anticancer human tumor MDA-MB-468 cell line growth inhibition;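 also: spheroids exposed to agents for seven days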;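 as to viability, T/C: 100% = DMSO vehicle control viability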
Details: for IC50: curve of first compound; for viability, T/C: stronger effect = lower value
How it was run: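 Drug combinations with the LSD1 inhibitor iadademstat tested on tumor cells co-cultured as spheroids with endothelial cells and mesenchymal stem cells. Concentrations descended in half-log increments from clinical Cmax or 10 microM.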

[1] = second compound 0.1 µM, first compound 0.0316 µM
[2] = second compound 0.1 µM, first compound 0.1 µM
[3] = second compound 0.1 µM, first compound 0.316 µM
[4] = second compound 0.1 µM, first compound 1 µM
[5] = second compound 0.1 µM, first compound 3.16 µM
[6] = second compound 0.1 µM, first compound 10 µM
[7] = second compound 0.316 µM, first compound 0.0316 µM
[8] = second compound 0.316 µM, first compound 0.1 µM
[9] = second compound 0.316 µM, first compound 0.316 µM
[10] = second compound 0.316 µM, first compound 1 µM
[11] = second compound 0.316 µM, first compound 3.16 µM
[12] = second compound 0.316 µM, first compound 10 µM
[13] = second compound 1 µM, first compound 0.0316 µM
[14] = second compound 1 µM, first compound 0.1 µM
[15] = second compound 1 µM, first compound 0.316 µM
[16] = second compound 1 µM, first compound 1 µM
[17] = second compound 1 µM, first compound 3.16 µM
[18] = second compound 1 µM, first compound 10 µM
[19] = second compound 3.16 µM, first compound 0.0316 µM
[20] = second compound 3.16 µM, first compound 0.1 µM
[21] = second compound 3.16 µM, first compound 0.316 µM
[22] = second compound 3.16 µM, first compound 1 µM
[23] = second compound 3.16 µM, first compound 3.16 µM
[24] = second compound 3.16 µM, first compound 10 µM
[25] = second compound 10 µM, first compound 0.0316 µM
[26] = second compound 10 µM, first compound 0.1 µM
[27] = second compound 10 µM, first compound 0.316 µM
[28] = second compound 10 µM, first compound 1 µM
[29] = second compound 10 µM, first compound 3.16 µM
[30] = second compound 10 µM, first compound 10 µM

`COc1ccc([C@@H](O)c2cc(-c3ncnc4cc(N5CCOCC5)ccc34)c(F)cc2Cl)nn1` + NC1CCC(NC2CC2c2ccccc2)CC1 showed an IC50 (second compound 0.1 µM) of 1.07 µM, an IC50 (second compound 0.316 µM) of 1.16 µM and an IC50 (second compound 1 µM) of 0.817 µM. It also gave an IC50 (second compound 3.16 µM) of 0.832 µM, an IC50 (second compound 10 µM) of 1.34 µM and a viability, T/C [1] of 97.8%. The viability, T/C [2] was 83.5%, the viability, T/C [3] was 68% and the viability, T/C [4] was 50%. It also gave a viability, T/C [5] of 35%, a viability, T/C [6] of 12.8% and a viability, T/C [7] of 101%. For the same compound, the viability, T/C [8] was 83.7%, the viability, T/C [9] was 71.7% and the viability, T/C [10] was 52.3%. The viability, T/C [11] was 33.6%, the viability, T/C [12] was 13.1% and the viability, T/C [13] was 90.5%. For the same compound, the viability, T/C [14] was 86.9%, the viability, T/C [15] was 58.3% and the viability, T/C [16] was 45.9%. The viability, T/C [17] was 33.9%, the viability, T/C [18] was 12.5% and the viability, T/C [19] was 100%. For the same compound, the viability, T/C [20] was 64.9%, the viability, T/C [21] was 61.7% and the viability, T/C [22] was 55.4%. For the same compound, the viability, T/C [23] was 33.2%, the viability, T/C [24] was 15.6% and the viability, T/C [25] was 51.3%. The viability, T/C [26] was 58.3%, the viability, T/C [27] was 57.5% and the viability, T/C [28] was 55%. The viability, T/C [29] was 35.2% and the viability, T/C [30] was 12.7%.
`CC1(C)CCC(CN2CCN(c3ccc(C(=O)NS(=O)(=O)c4ccc(NCC5CCOCC5)c([N+](=O)[O-])c4)c(Oc4cnc5[nH]ccc5c4)c3)CC2)=C(c2ccc(Cl)cc2)C1` + NC1CC1c1ccc(-c2cccc(O)c2)cc1 was tested, and the IC50 (second compound 0.1 µM) was 1.82 µM, the IC50 (second compound 0.316 µM) was 1.7 µM and the IC50 (second compound 1 µM) was 1.83 µM. It also gave an IC50 (second compound 3.16 µM) of 1.55 µM, an IC50 (second compound 10 µM) of 0.509 µM and a viability, T/C [1] of 106%. The viability, T/C [2] was 90.4%, the viability, T/C [3] was 96.9% and the viability, T/C [4] was 72.7%. For the same compound, the viability, T/C [5] was 29%, the viability, T/C [6] was 2.15% and the viability, T/C [7] was 90.3%. The viability, T/C [8] was 108%, the viability, T/C [9] was 94.4% and the viability, T/C [10] was 64.7%. It also gave a viability, T/C [11] of 30.9%, a viability, T/C [12] of 1.99% and a viability, T/C [13] of 93.7%. For the same compound, the viability, T/C [14] was 101%, the viability, T/C [15] was 88.6% and the viability, T/C [16] was 75.8%. It also gave a viability, T/C [17] of 27.4%, a viability, T/C [18] of 2.31% and a viability, T/C [19] of 91.2%. The viability, T/C [20] was 83.1%, the viability, T/C [21] was 92.1% and the viability, T/C [22] was 64%. It also gave a viability, T/C [23] of 24.5%, a viability, T/C [24] of 1.95% and a viability, T/C [25] of 78.5%. It also gave a viability, T/C [26] of 67.7%, a viability, T/C [27] of 59.9% and a viability, T/C [28] of 38.5%. The viability, T/C [29] was 16.8% and the viability, T/C [30] was 1.82%.
With `O=C(C=Cn1cnc(-c2cc(C(F)(F)F)cc(C(F)(F)F)c2)n1)NNc1cnccn1` + NC1CCC(NC2CC2c2ccccc2)CC1 the IC50 (second compound 0.1 µM) was < 0.00316 µM, the IC50 (second compound 0.316 µM) was < 0.00316 µM and the IC50 (second compound 1 µM) was < 0.00316 µM. For the same compound, the IC50 (second compound 3.16 µM) was < 0.00316 µM, the IC50 (second compound 10 µM) was < 0.00316 µM and the viability, T/C (second compound 0.1 µM, first compound 0.00316 µM) was 45.1%. For the same compound, the viability, T/C (second compound 0.1 µM, first compound 0.01 µM) was 29.7%, the viability, T/C [1] was 11.8% and the viability, T/C [2] was 3.32%. For the same compound, the viability, T/C [3] was 2.51%, the viability, T/C [4] was 1.85% and the viability, T/C (second compound 0.316 µM, first compound 0.00316 µM) was 38.9%. The viability, T/C (second compound 0.316 µM, first compound 0.01 µM) was 26.9%, the viability, T/C [7] was 9.03% and the viability, T/C [8] was 2.83%. The viability, T/C [9] was 7.44%, the viability, T/C [10] was 2.14% and the viability, T/C (second compound 1 µM, first compound 0.00316 µM) was 37.4%. For the same compound, the viability, T/C (second compound 1 µM, first compound 0.01 µM) was 32%, the viability, T/C [13] was 10.6% and the viability, T/C [14] was 3.06%. The viability, T/C [15] was 2.61%, the viability, T/C [16] was 6.02% and the viability, T/C (second compound 3.16 µM, first compound 0.00316 µM) was 38.8%. For the same compound, the viability, T/C (second compound 3.16 µM, first compound 0.01 µM) was 31%, the viability, T/C [19] was 12.4% and the viability, T/C [20] was 3.59%. For the same compound, the viability, T/C [21] was 6.05%, the viability, T/C [22] was 5.81% and the viability, T/C (second compound 10 µM, first compound 0.00316 µM) was 35.4%. For the same compound, the viability, T/C (second compound 10 µM, first compound 0.01 µM) was 30.1%, the viability, T/C [25] was 12.3% and the viability, T/C [26] was 4.27%. The viability, T/C [27] was 8.47% and the viability, T/C [28] was 2.53%.
